Experimental data as given in ChEMBL document CHEMBL5665443, “Enzyme Inhibitor Single Concentration assay results for EUbOPEN Chemogenomics Library” (2024).
Where a SMILES comes first, the peptide text is derived from it. [ ]: non-standard residue; d: D form. The star is where a group is joined. dPhe(4-NHCONH2) = NC(=O)Nc1ccc(C[C@@H](N)C(=O)O)cc1; Dihydroorotyl(S) = O=C1C[C@@H](C(=O)*)NC(=O)N1; dPhe(4-Cl) = N[C@H](Cc1ccc(Cl)cc1)C(=O)O; Phe(4-NH2) = Nc1ccc(C[C@H](N)C(=O)O)cc1; d2Nal = N[C@H](Cc1ccc2ccccc2c1)C(=O)O; Lys(iPr) = CC(C)NCCCC[C@H](N)C(=O)O; d3Pal = N[C@H](Cc1cccnc1)C(=O)O

How the values were obtained:
[1] = biological target: DNA-3-methyladenine glycosylase (Homo sapiens) (UniProt P29372); details: Compound Concentration 10.0 uM, Hit No;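 further: enzyme assay where MPG cuts a quenched duplex DNA oligonucleotide probe, paired with APE1 for strand incision and turnover, read as fluorescence at 594 nm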
Chain of DNA-3-methyladenine glycosylase (Homo sapiens) (P29372 whole entry): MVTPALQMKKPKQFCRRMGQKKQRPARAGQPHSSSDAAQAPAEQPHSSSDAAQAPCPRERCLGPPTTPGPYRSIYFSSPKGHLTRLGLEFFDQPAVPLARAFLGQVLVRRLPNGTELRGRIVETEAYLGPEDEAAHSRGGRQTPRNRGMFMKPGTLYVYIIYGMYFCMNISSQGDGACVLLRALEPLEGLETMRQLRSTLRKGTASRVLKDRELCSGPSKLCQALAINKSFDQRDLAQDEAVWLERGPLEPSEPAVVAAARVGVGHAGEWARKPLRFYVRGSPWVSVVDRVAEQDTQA
Description: Inhibition of MPG by quantifying inhibition of MPG-mediated cleavage and dissociation of quenched duplex DNA oligonucleotides, measured as fluorescence at 594 nm. To generate a functional strand incision and increase turn-over this assay is coupled to APE1.

[2] = biological target: Endonuclease 8-like 1 (Homo sapiens) (UniProt Q96FI4); details: Compound Concentration 10.0 uM, Hit No;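 further: fluorescence at 594 nm from quenched duplex DNA oligonucleotides released by NEIL1 cleavage and strand separation, reported as reduction of this enzyme activity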
Chain of Endonuclease 8-like 1 (Homo sapiens) (Q96FI4 whole entry): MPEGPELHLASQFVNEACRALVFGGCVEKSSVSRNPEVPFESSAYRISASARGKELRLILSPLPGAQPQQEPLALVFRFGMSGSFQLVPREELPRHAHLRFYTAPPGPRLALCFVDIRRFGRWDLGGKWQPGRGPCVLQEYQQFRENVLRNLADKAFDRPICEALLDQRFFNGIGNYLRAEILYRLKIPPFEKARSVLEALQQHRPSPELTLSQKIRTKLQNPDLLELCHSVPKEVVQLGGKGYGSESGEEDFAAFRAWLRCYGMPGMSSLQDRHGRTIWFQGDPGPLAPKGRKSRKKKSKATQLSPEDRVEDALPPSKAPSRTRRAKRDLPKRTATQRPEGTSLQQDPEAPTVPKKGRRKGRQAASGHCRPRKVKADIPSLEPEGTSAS
Description: Inhibition of NEIL1 by quantifying inhibition of NEIL1-mediated cleavage and dissociation of quenched duplex DNA oligonucleotides, measured as fluorescence at 594 nm.

[3] = biological target: T1, Endonuclease III-like protein 1 (Homo sapiens) (UniProt P78549); details: Compound Concentration 10.0 uM, Hit No;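 further: enzyme assay tracking NTHL1 cutting and release of a quenched double-stranded DNA oligo substrate, read as fluorescence at 594 nm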
T1 sequence (whole entry): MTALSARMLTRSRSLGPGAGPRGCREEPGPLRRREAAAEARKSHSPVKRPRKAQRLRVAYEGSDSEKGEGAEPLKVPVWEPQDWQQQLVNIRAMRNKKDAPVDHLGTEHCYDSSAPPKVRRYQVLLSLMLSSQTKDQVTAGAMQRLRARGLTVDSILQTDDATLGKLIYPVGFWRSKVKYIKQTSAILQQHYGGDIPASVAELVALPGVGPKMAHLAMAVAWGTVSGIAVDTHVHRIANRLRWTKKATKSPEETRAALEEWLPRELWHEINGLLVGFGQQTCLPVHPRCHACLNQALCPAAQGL
Description: Inhibition of NTHL1 by quantifying inhibition of NTHL1-mediated cleavage and dissociation of quenched duplex DNA oligonucleotides, measured as fluorescence at 594 nm.

[4] = biological target: N-glycosylase/DNA lyase (Homo sapiens) (UniProt O15527); details: Compound Concentration 10.0 uM;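 further: OGG1 cleavage of a quenched duplex DNA oligonucleotide, coupled to APE1 for strand incision, read as fluorescence at 594 nm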
Chain of N-glycosylase/DNA lyase (Homo sapiens) (O15527 whole entry): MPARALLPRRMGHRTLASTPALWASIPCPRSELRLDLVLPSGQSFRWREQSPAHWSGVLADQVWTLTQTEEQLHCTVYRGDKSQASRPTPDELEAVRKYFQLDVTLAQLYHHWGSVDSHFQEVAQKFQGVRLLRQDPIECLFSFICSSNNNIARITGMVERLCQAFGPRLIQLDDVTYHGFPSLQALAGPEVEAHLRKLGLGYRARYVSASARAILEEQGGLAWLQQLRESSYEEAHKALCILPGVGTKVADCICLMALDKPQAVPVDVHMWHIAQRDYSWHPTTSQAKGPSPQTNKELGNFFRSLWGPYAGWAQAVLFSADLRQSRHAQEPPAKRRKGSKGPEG
Description: Inhibition of OGG1 by quantifying inhibition of OGG1-mediated cleavage and dissociation of quenched duplex DNA oligonucleotides, measured as fluorescence at 594 nm. To generate a functional strand incision and increase turn-over this assay is coupled to APE1.

[5] = biological target: T2, Single-strand selective monofunctional uracil DNA glycosylase (Homo sapiens) (UniProt Q53HV7); details: Compound Concentration 10.0 uM;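 further: enzymatic SMUG1 assay coupled with APE1, reading fluorescence at 594 nm released when a quenched double-stranded DNA oligonucleotide substrate is cleaved and separated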
T2 sequence (whole entry): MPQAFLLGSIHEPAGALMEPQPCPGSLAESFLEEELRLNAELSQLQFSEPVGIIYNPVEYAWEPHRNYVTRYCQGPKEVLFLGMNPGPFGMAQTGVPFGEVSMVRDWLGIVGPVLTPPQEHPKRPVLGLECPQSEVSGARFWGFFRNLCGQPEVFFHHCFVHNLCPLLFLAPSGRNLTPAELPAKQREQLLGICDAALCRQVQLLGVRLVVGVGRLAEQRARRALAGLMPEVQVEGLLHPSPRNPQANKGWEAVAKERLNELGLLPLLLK
Description: Inhibition of SMUG1 by quantifying inhibition of SMUG1-mediated cleavage and dissociation of quenched duplex DNA oligonucleotides, measured as fluorescence at 594 nm. To generate a functional strand incision and increase turn-over this assay is coupled to APE1.

[6] = biological target: G/T mismatch-specific thymine DNA glycosylase (Homo sapiens) (UniProt Q13569); details: Compound Concentration 10.0 uM, Hit No;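 further: human TDG cleavage of quenched duplex DNA oligonucleotides coupled to APE1, strand release read as fluorescence at 594 nm, inhibition of TDG activity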
Chain of G/T mismatch-specific thymine DNA glycosylase (Homo sapiens) (Q13569 whole entry): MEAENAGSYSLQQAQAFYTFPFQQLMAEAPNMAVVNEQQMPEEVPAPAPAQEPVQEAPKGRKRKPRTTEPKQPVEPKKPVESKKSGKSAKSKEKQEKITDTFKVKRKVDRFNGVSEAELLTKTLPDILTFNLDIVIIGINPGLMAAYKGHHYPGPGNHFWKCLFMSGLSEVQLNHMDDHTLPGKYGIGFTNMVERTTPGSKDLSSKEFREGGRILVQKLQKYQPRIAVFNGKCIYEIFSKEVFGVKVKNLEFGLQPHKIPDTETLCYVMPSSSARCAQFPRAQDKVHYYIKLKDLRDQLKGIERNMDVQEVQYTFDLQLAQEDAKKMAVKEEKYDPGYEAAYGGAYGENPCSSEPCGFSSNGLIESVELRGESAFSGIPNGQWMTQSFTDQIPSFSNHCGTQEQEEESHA
Description: Inhibition of TDG by quantifying inhibition of TDG-mediated cleavage and dissociation of quenched duplex DNA oligonucleotides, measured as fluorescence at 594 nm. To generate a functional strand incision and increase turn-over this assay is coupled to APE1.

[7] = biological target: Uracil-DNA glycosylase (Homo sapiens) (UniProt P13051); details: Compound Concentration 10.0 uM;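 further: UNG excision on a quenched double-stranded DNA oligo probe, with APE1 added for strand incision and turnover, read as fluorescence at 594 nm as strands separate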
Chain of Uracil-DNA glycosylase (Homo sapiens) (P13051 whole entry, the tested form may be a part): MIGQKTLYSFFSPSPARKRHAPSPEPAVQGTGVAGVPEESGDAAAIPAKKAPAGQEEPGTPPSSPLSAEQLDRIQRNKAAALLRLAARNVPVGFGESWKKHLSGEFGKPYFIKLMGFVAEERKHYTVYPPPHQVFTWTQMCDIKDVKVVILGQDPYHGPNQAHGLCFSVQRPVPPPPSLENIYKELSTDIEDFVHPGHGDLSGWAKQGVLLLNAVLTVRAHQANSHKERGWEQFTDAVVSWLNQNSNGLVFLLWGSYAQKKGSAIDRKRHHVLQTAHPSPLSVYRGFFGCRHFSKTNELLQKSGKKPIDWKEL
Description: Inhibition of UNG by quantifying inhibition of UNG-mediated cleavage and dissociation of quenched duplex DNA oligonucleotides, measured as fluorescence at 594 nm. To generate a functional strand incision and increase turn-over this assay is coupled to APE1.

[8] = biological target: Methyl-CpG-binding domain protein 4 (Homo sapiens) (UniProt O95243); details: Compound Concentration 10.0 uM;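 further: MBD4 activity read as fluorescence at 594 nm from cleavage and release of a quenched duplex DNA oligonucleotide, with APE1 coupled to incise the strand and raise turnover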
Chain of Methyl-CpG-binding domain protein 4 (Homo sapiens) (O95243 whole entry, the tested form may be a part): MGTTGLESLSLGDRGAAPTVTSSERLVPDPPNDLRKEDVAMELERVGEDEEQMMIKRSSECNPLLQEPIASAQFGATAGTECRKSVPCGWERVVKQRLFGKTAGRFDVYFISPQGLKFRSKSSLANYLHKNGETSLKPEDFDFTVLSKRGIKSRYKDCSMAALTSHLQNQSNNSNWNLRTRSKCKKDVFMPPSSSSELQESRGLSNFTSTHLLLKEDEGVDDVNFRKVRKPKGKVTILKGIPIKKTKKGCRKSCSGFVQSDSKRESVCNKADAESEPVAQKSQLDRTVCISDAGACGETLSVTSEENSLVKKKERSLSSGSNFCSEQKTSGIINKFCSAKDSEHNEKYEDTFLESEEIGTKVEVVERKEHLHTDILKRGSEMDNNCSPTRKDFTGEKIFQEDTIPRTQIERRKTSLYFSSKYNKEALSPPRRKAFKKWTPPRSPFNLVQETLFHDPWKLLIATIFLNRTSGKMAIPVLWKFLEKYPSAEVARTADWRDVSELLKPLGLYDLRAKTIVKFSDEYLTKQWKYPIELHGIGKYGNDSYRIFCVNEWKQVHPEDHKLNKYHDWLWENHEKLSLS
Description: Inhibition of MBD4 by quantifying inhibition of MBD4-mediated cleavage and dissociation of quenched duplex DNA oligonucleotides, measured as fluorescence at 594 nm. To generate a functional strand incision and increase turn-over this assay is coupled to APE1.

[9] = biological target: T3, Endonuclease 8-like 2 (Homo sapiens) (UniProt Q969S2); details: Compound Concentration 10.0 uM;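 further: fluorescence at 594 nm reports NEIL2 cutting and release of a quenched double-stranded DNA oligo substrate, reduced signal read as inhibition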
T3 sequence (whole entry): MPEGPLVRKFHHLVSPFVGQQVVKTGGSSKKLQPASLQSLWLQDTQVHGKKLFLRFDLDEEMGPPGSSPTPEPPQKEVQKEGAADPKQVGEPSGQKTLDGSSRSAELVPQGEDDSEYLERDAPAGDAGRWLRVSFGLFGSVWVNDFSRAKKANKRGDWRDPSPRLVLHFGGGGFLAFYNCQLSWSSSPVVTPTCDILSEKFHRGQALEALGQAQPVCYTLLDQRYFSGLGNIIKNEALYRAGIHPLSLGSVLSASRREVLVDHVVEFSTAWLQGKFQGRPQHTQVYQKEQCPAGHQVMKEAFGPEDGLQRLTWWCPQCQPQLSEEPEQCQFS
Description: Inhibition of NEIL2 by quantifying inhibition of NEIL2-mediated cleavage and dissociation of quenched duplex DNA oligonucleotides, measured as fluorescence at 594 nm.

Row | Compound | inhibition [1] [%] | inhibition [2] [%] | inhibition [3] [%] | inhibition ([4]; Hit No) [%] | inhibition ([5]; Hit No) [%] | inhibition [6] [%] | inhibition ([7]; Hit No) [%] | inhibition ([8]; Hit No) [%] | inhibition ([9]; Hit No) [%] | inhibition ([9]; Hit Yes) [%] | inhibition ([8]; Hit Yes) [%] | inhibition ([4]; Hit Yes) [%] | inhibition ([5]; Hit Yes) [%] | inhibition ([7]; Hit Yes) [%]
1 | CN1[C@@H](CC(=O)c2ccccc2)CCC[C@H]1C[C@H](O)c1ccccc1 | -4.83 | 1.64 | -8.51 | -6.7 | 1.46 | -5.94 | -4.79 |  |  |  |  |  |  | 
2 | C[C@H](CO)Nc1nc(SCc2cccc(Cl)c2F)nc2[nH]c(=O)sc12 | 2.92 | 8.99 |  | 5.5 | 6.22 | 22 | -8.73 | 13.6 | -2.98 |  |  |  |  | 
3 | Cc1nn(C)c(C)c1-c1cccc2c1CC[C@H](N(C)C)C2 | -9.58 | 1.87 | 6.32 | -7.75 |  | -4.55 |  |  | -0.234 |  |  |  |  | 
4 | CC1CCN(CC[C@H]2CCCN2S(=O)(=O)c2cccc(O)c2)CC1 | -7.22 | 8.25 |  | -3.4 | 3.5 | 2.43 | -9.71 | 6.36 | -5.22 |  |  |  |  | 
5 | O=C(NCC1(N2CCN(c3ccccc3)CC2)CCOCC1)c1cccnc1Sc1ccccc1 | 1.32 | -4.14 | 23.7 |  | 2.13 | -0.15 | 1.03 |  | -7.99 |  |  |  |  | 
6 | N#Cc1c(Oc2cccc(OS(=O)(=O)CCCC(F)(F)F)c2)cccc1C(F)(F)F | 8.15 |  | -1.91 | -7.69 |  | -4.05 | -1.27 |  | -7.74 |  |  |  |  | 
7 | COC(=O)[C@H](CCCN=C(N)N)NC(=O)CCCc1c(-c2ccccc2)[nH]c2c(F)cc(F)cc12 | 5.31 | 5.58 | -5.41 | -3.54 |  | 16.3 | -5.65 |  |  | 38.2 |  |  |  | 
8 | Cc1cc(Cn2nnc3c(-c4ccco4)nc(N)nc32)ccc1N | -3.71 | -2.58 |  | 0.253 | -2.07 | 17.6 |  | 4.16 | 2.26 |  |  |  |  | 
9 | COc1ccc(CCN(C)CCCC(C#N)(c2cc(OC)c(OC)c(OC)c2)C(C)C)cc1OC (stereo not given) | -3.7 | 5.05 | 3.04 | -7.76 | -0.579 | -7.93 | -3.3 |  | 2.71 |  |  |  |  | 
10 | CSc1nc(NC2CCCC2)c([N+](=O)[O-])c(NC2CCCC2)n1 | -2.56 | 2.61 | 21 | -2.94 |  | 7.68 |  |  | 7.5 |  |  |  |  | 
11 | CC[C@@H](C)Nc1nc(C)nc2c(-c3ccc(OC)nc3C)c(C)nn12 | 9.17 | 4.1 |  | -1.59 | 10.2 | 17.1 | -5.14 | 8.63 | 2.26 |  |  |  |  | 
12 | N#Cc1c[nH]c2c(C(=O)N3CCN(CCc4ccc(F)cc4)CC3)cccc12 | -7.3 |  | -5.41 | -8.41 | -8.12 |  | -9.6 |  | -4.73 |  |  |  |  | 
13 | COC(=O)C1=C(C)NC(C)=C(C(=O)OCCCN2CCC(c3ccccc3)(c3ccccc3)CC2)[C@H]1c1cccc([N+](=O)[O-])c1 | -9.35 |  |  | -5.2 | 9.7 | 35.3 | -9.34 | -5.72 | 13.7 |  |  |  |  | 
14 | COc1ccccc1N1CCN(CCCCNC(=O)c2ccc3ccccc3c2)CC1 | 14.3 | 4.99 |  | 9.63 |  | 10.4 | -4.08 | 0.789 | 11 |  |  |  |  | 
15 | O=C1CSC(=O)N1C(CCc1ccncc1)COc1ccc(-c2cccc([N+](=O)[O-])c2)cc1 (stereo not given) | -5.43 | 2.68 | 17.1 | -1.32 | 6.99 | -8.91 | -2.95 |  | 3.73 |  |  |  |  | 
16 | Cc1ccc(OCC(O)C(C)NC(C)C)c2c1CCC2 (stereo not given) | 6.31 | 7.65 |  | -9.41 |  | 8.49 |  |  | -0.983 |  | 134 |  |  | 
17 | C[C@H](CCC(=O)O)[C@H]1CC[C@H]2[C@@H]3CC[C@@H]4C[C@H](O)CC[C@]4(C)[C@H]3CC[C@]12C | 15.2 | 10 |  | 4.17 | -9.19 | 21.8 | -8.43 |  | 8 |  | 140 |  |  | 
18 | Cc1nnsc1C(=O)Nc1ccc(-n2nc(C(F)(F)F)cc2C(F)(F)F)cc1 | -1.63 | 0.306 | 14.6 | 15.7 | 15.8 |  | -0.15 |  | 0.414 |  |  |  |  | 
19 | CCOc1ccccc1C(=O)NCC1(N2CCN(CC)CC2)CCCCC1 | -0.78 | -3.55 |  |  | -8.6 | 5.23 | -8.16 | -3.81 | 3.22 |  |  |  |  | 
20 | CS(=O)(=O)c1ccc(C(=O)Nc2ccc(Cl)c(-c3ccccn3)c2)c(Cl)c1 | 3.65 | 3.5 | -9.8 |  |  | 6.01 |  |  | 5.76 |  |  |  |  | 
21 | Cc1[nH]cnc1CN1CCc2c(c3ccccc3n2C)C1=O | 3.5 | 11.2 |  | 1.31 | 3.41 | 19 | -6.85 | 11.9 |  |  |  |  |  | 
22 | OCc1cc(C(O)CNCCCCCCOCCCCc2ccccc2)ccc1O (stereo not given) | 0.951 | 8.39 | 11.4 | -5.95 |  | 6.25 | -9.38 |  | 4.01 |  |  |  |  | 
23 | CCC(=O)NCC[C@@H]1CCc2ccc3c(c21)CCO3 | 4.81 | 10.6 |  | 6.47 | -9.19 | 9.54 | -9.69 | -9.72 | 6 |  |  |  |  | 
24 | C[C@H](NC(=O)CNC(=O)c1cccc(Cl)c1)c1ccccc1 | 13.7 | -1.54 |  | -9.41 |  | 6.8 |  | -8.91 | -8.97 |  |  |  |  | 
25 | CC[C@H]1CN2CCc3cc(OC)c(OC)cc3[C@@H]2C[C@@H]1C[C@H]1NCCc2cc(OC)c(OC)cc21 | -9.31 | -0.5 | 3.39 |  | -7.35 | -0.514 |  |  | 4.51 |  |  |  |  | 
26 | CC(=O)N[C@H](Cc1ccc2ccccc2c1)C(=O)N[C@H](Cc1ccc(Cl)cc1)C(=O)N[C@H](Cc1cccnc1)C(=O)N[C@@H](CO)C(=O)N[C@@H](Cc1ccc(NC(=O)[C@@H]2CC(=O)NC(=O)N2)cc1)C(=O)N[C@H](Cc1ccc(NC(N)=O)cc1)C(=O)N[C@@H](CC(C)C)C(=O)N[C@@H](CCCCNC(C)C)C(=O)N1CCC[C@H]1C(=O)N[C@H](C)C(N)=O (Ac-[d2Nal][dPhe(4-Cl)][d3Pal]S[Phe(4-NH2)](Dihydroorotyl(S))[dPhe(4-NHCONH2)]L[Lys(iPr)]P[dA]-NH2) | 22.6 |  | 7.79 |  |  | 56.9 |  |  | 25.7 |  |  | 98.4 | 53.4 | 86.3
